Measurements from the NIST ThermoML archive (doi:10.1016/j.jct.2016.08.031).
± gives the expanded uncertainty stated by the source.

Conditions: Liquid, Closed cell (Static) method

Structure (SMILES) | vapor or sublimation pressure (303.15 K) [kPa] | vapor or sublimation pressure (313.15 K) [kPa] | vapor or sublimation pressure (323.15 K) [kPa] | vapor or sublimation pressure (333.15 K) [kPa] | vapor or sublimation pressure (343.15 K) [kPa] | vapor or sublimation pressure (353.15 K) [kPa]
CC(C)C [2-methylpropane] | 404.5 ± 1.2 | 530.9 ± 1.3 | 684.6 ± 1.4 | 869 ± 1.7 | 1087.4 ± 1.9 | 1343.4 ± 2.3
F/C=C\C(F)(F)F [(Z)-1,3,3,3-tetrafluoro-1-propene] | 210.6 ± 1.1 | 290.7 ± 1.1 | 391.8 ± 1.2 | 517.4 ± 1.3 | 671.3 ± 1.4 | 859.2 ± 1.6
